Assay results from US20240424010A1, “NICOTINAMIDE RIBOSIDE TRIOLEATES CHLORIDE, COMPOSITIONS CONTAINING THIS COMPOUND, AND METHODS OF MAKING AND USING THIS COMPOUND” (SOCIETE DES PRODUITS NESTLE S.A., priority 2021, published 2024).
“Also recorded” adds a separate entry of the source.

Experiments:
Format in all cases: physicochemical
[1] = Solubility of NRTOCl in water and in canola, corn and MCT oil
Procedure: 2154 mg of canola oil was added to a 15 mL falcon tube containing 380 mg of NRTOCl. Then, the tube was placed in a water bath and was shaken at around 35° C. until NRTOCl was completely dissolved in canola oil. After dissolving NRTOCl in canola oil, the sample was kept at room temperature for the next studies. […] Although NRTOCl is a quaternary ammonium salt, it was not dissolved in water due to the existence of three groups of oleate fatty ester in its structure. Therefore, for the stability study of NRTOCl, this compound was dispersed in DI water using 1% ethanol as a cosolvent. For this purpose, 15 mg of NRTOCl was dissolved in 0.15 ml of ethanol (1%) and then 14.85 ml of DI water was added to the mixture and gently shaken. […] Although the average size of NRTOCl in this sample was 192 nm, the images of TEM disclosed smaller particles with around 50 nm and oval and spherical shapes with aspect ratio close to unity (FIGS. 10A-10C). In the nanoparticles, the NRTOCl structures are stacked on top of each other layer-by-layer. The highly positive charge of NRTO makes the nanoparticles stable in the aqueous phase.

[2] = Hydrolysis stability of NRTOCl and NRCl oil-in-water emulsions and NRCl in water at 35° C. for 26 days; settings: 35° C., 26 days; for times more stable than NR(Cl) in emulsion: canola oil-in-water emulsion with sodium caseinate
Procedure: The emulsion was prepared using 480 mg of oil stock containing 15 wt. % NRTOCl in canola oil and an aqueous phase (14.52 g) of Na-caseinate (2 wt. %), KCl (0.3 wt. %), NaCl (0.1 wt. %), CaCl2 (0.2 wt. %) and NaN3 (0.01 wt. %).
The emulsion was-prepared using 480 mg of oil stock containing 15 wt. % NRTOCl in canola oil and 0.025 g of lecithin. The aqueous phase (14.5 g) contained Na-caseinate (2 wt. %), KC (0.3 wt. %), NaCl (0.1 wt. %), CaCl2 (0.2 wt. %) and NaN3 (0.01 wt. %).
The emulsion was-prepared using 480 mg of oil stock containing 15 wt. % NRTOCl in canola oil and an aqueous phase (14.52 g) of polysorbate 80 (Tween 80) (2 wt. %).
The emulsion was prepared using around 480 mg of canola oil in an aqueous phase (14.52 g) of NRCl (19 mg), Na-caseinate (2 wt. %), KCl (0.3 wt. %), NaCl (0.1 wt. %), CaCl2 (0.2 wt. %) and NaN3 (0.01 wt. %).
After each specific time of stability for NRTOCl and NRCl emulsions, 1.5 mL of each emulsion was centrifuged (14,000 rpm) for 20 minutes at room temperature.
Since NRTOCl is a very hydrophobic compound, to evaluate its stability in oil phase, an emulsion system was used to study the stability of NRTOCl as a function of time. For this purpose, a 15% w/w solution of NRTOCl in canola oil was used for making different emulsions with Na-caseinate, Tween 80 and lecithin as the emulsifiers (2 wt. %) at room temperature.
When Na-caseinate was used as an emulsifier, the aqueous phase must be a solution of NaCl (0.1 wt. %), CaCl2 (0.2 wt. %) and KCl (0.3 wt. %) because caseinate anion with minus charge and NRTO with positive charge immediately aggregated in DI water. The total oil phase in these emulsions were 3.2 wt. %, and the concentration of NRTOCl in total volume of each emulsion (15 mL) was 4.4 mM. In the emulsions that used Na-caseinate as an emulsifier, NaN3 (0.01 wt. %) was added to prevent the growth of bacteria. When the NRTOCl emulsion was made by 2 wt. % Na-caseinate, its average size and zeta potential in this emulsion (Cas emulsion) were 1020 nm and −14.4 mV respectively.
After making NRTOCl emulsions, a NRCl in canola oil-in-water emulsion was attempted as a control experiment using 3.2% canola oil. The aqueous phase was a solution of Na-caseinate (2 wt. %), NaCl (0.1 wt. %), CaCl2 (0.2 wt. %), KCl (0.3 wt. %) and NaN3 (0.01 wt. %). The concentration of NRCl in total volume (15 mL) of this emulsion was 4.4 mM. Moreover, 15 mL of NRCl solution in DI water was prepared with 4.4 mM concentration as the other control experiment. After preparing three NRTOCl emulsions and two control experiment samples, hydrolysis stability of each sample was studied at 35° C. for 26 days (FIG. 14). The rate of degradation was measured by determination of the released nicotinamide from each sample. […]

[3] = Hydrolysis stability of NRTOCl emulsions and NRCl in water at room temperature for 42 days
Procedure: After each specific time of stability for NRTOCl and NRCl emulsions, 1.5 mL of each emulsion was centrifuged (14,000 rpm) for 20 minutes at room temperature. […] However, during this time of stability study, 52.0% NR was intact in water at room temperature. […] During this time, these emulsions were stable without visible phase separation. A little increase in the average size of the NRTO droplets occurred in these emulsions, so that in Cas emulsion, the average size increased from 1020 nm to 1281 nm, and in Cas-Lec emulsion, this parameter increased from 1012 nm to 1106 nm.

appearance of 15 wt. % solution in canola oil during storage ([1]; 15 wt. % NRTOCl in canola oil, room temperature): stable and clear without any sediment | solubility in canola oil ([1]; canola oil): easily dissolved | solubility in canola, corn and MCT oil ([1]; room temperature): easily dissolved | times more stable than NR(Cl) in emulsion [2]: 213 times | times more stable than NR(Cl) in emulsion ([2]; listed as NRTO): about 213 times | remaining amount after 26 days in emulsion ([2]; canola oil-in-water emulsion, 4.4 mM): 93.7% | released NR from NRTO (hydrolysis of ester groups) ([3]; all NRTO stability conditions): no released NR | hydrolysis of NRTO after 42 days ([3]; canola oil-in-water emulsion (sodium caseinate), room temperature, 42 days): 5%
Compound: CCCCCCCC/C=C\CCCCCCCC(=O)OC[C@H]1O[C@@H]([n+]2cccc(C(N)=O)c2)[C@H](OC(=O)CCCCCCC/C=C\CCCCCCCC)[C@@H]1OC(=O)CCCCCCC/C=C\CCCCCCCC.[Cl-] [NRTOCl, nicotinamide riboside trioleates chloride]
solubility in water ([1]; water): not soluble in water; also recorded: not dissolved; also recorded: water insoluble
